Test results as given in patent US11072634B2, “Inhibitors of transglutaminases” (Zedira GmbH, priority 2016, dated 2021).
Where a SMILES comes first, the peptide text is derived from it. [ ]: non-standard residue; d: D form. The star is where a group is joined. Nle(5,6-dioxo,6-NHMe) = CNC(=O)C(=O)CC[C@H](N)C(=O)O; Isopropoxycarbonyl = CC(C)OC(=O)*; Hyp = O=C(O)[C@@H]1C[C@@H](O)CN1; Tic = O=C(O)[C@@H]1Cc2ccccc2CN1; X8 = CC1(C)CC(CC(=O)*)C(=O)O1; Aib = CC(C)(N)C(=O)O

Target: T1, recombinant human tissue transglutaminase (rhTG2) (Homo sapiens, UniProt P21980)
T1 construct: purchased Zedira 1022 (so in the source); T022)
T1 sequence (P21980 1-687): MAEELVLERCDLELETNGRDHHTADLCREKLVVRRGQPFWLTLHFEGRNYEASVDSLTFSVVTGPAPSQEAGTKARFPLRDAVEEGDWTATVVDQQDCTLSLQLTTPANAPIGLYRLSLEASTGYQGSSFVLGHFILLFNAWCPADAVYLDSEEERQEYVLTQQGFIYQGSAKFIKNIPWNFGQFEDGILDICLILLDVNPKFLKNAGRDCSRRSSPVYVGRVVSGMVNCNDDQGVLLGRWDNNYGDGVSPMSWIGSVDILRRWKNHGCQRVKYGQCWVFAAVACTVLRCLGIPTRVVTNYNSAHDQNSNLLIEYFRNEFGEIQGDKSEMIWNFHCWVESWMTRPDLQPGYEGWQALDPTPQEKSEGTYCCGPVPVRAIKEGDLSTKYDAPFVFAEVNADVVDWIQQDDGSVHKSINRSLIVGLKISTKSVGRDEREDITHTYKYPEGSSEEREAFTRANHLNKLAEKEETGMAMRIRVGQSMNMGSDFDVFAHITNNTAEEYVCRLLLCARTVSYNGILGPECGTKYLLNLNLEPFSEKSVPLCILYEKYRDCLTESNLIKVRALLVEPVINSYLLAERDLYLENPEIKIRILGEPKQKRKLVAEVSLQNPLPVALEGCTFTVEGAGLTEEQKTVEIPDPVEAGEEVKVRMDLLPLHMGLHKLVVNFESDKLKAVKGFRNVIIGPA
Experiment: Inhibition of rec. human tissue transglutaminase (fluorescence, Abz-APE(CAD-DNP)QEA-OH)
Assay type: biochemical
Settings: Table 2, TG2 inhibitors
Experimental: Method for Inhibition Studies of Rec. Human Tissue Transglutaminase (rhTG2)
250 μg lyophilized His-tagged recombinant human tissue transglutaminase (His6-rhTG2, Zedira product 1022) is reconstituted in H2O (volume depends on original volume before lyophilization) resulting in a buffer containing 10 mM Tris-HCl, 150 mM NaCl, 1 mM EDTA, 5 mM DTT, 189 mg/ml maltodextrin, pH=8.1. The rhTG2 stock solution is diluted in buffer (50 mM Tris-HCl, 7.5 mM CaCl2, 150 mM NaCl, pH=7.4) to give a working solution of 100 U/ml (based on the amine-incorporation activity measured using T036, described below).
A 10 mM inhibitor stock solution is prepared in DMSO, and from this stock solution a serial 1:2-fold dilution series is prepared, also in DMSO. Each of these initial dilutions is subsequently diluted 1:50-fold with buffer (50 mM Tris-HCl, 7.5 mM CaCl2, 150 mM NaCl, pH=7.4) to yield the final working dilutions containing 2% (v/v) DMSO. 15 μl of inhibitor working dilution are added per well of a 96 well microtiter plate. As control, 15 μl of a 2% (v/v) DMSO solution prepared using the buffer mentioned above are added per well.
600 μl of His6-rhTG2 working solution are added to 11.4 ml assay buffer (50 mM Iris-HCl, 7.5 mM CaCl2, 150 mM NaCl, 5 mM DTI, 13.4 mM glycine methylester, 50 μM Abz-APE(CAD-DNP)QEA-OH, (Zedira product A102; patent No.: EP 1781807B1), pH=7.4). From this master-mix solution, 285 μl are added per well containing the inhibitor. Increase in fluorescence is measured using λex=313 nm and λem=418 nm at 37° C. for 20 min. A slope of the increase in fluorescence between 10 and 20 min is calculated for determination of the IC50 value (inhibitor concentration at which 50% of the initial TG2 activity is blocked).
Analysis of enzymatic activity is performed by calculation of the slope of an increase in fluorescence intensity. IC50 values are calculated by plotting the enzymatic activity (as percentage from control containing 2% DMSO instead of inhibitor) against the inhibitor concentration. IC50 is defined as the inhibitor concentration blocking 50%) of initial enzyme activity.

Row | SMILES | IC50
1 | CNC(=O)C(=O)CC[C@H](NC(=O)OC(C)C)C(=O)N[C@@H](CCCNC(=N)N)C(=O)NC(C)(C)C(=O)N1C[C@H](O)C[C@H]1C(N)=O [Compound E84, isopropyl (S)-1-((S)-1-(1-((2S,4R)-2-carbamoyl-4-hydroxypyrrolidin-1-yl)-2-methyl-1-oxopropan-2-ylamino)-5-guanidino-1-oxopentan-2-ylamino)-6-(methylamino)-1,5,6-trioxohexan-2-ylcarbamate] (Isopropoxycarbonyl-[Nle(5,6-dioxo,6-NHMe)]R[Aib][Hyp]-NH2) | 960 nM
2 | CNC(=O)C(=O)CC[C@H](NC(=O)CC1CC(C)(C)OC1=O)C(=O)N[C@@H](Cc1c[nH]cn1)C(=O)N[C@@H](Cc1ccc(O)cc1)C(=O)N1Cc2ccccc2C[C@H]1C(N)=O (stereo partly drawn) [Compound E82, (2S)-N1-((S)-1-((S)-1-((S)-3-carbamoyl-3,4-dihydroisoquinolin-2(1H)-yl)-3-(4-hydroxy-phenyl)-1-oxopropan-2-ylamino)-3-(1H-imidazol-4-yl)-1-oxopropan-2-yl)-2-(2-(5,5-dimethyl-2-oxotetrahydrofuran-3-yl)acetamido)-N6-methyl-5-oxohexanediamide] (X8-[Nle(5,6-dioxo,6-NHMe)]HY[Tic]-NH2) | 1350 nM
3 | CNC(=O)C(=O)CCC[C@H](NC(=O)c1cncn1C)C(=O)Nc1ccc(S(=O)(=O)N2CCN(C)CC2)cc1 [Compound E72, (S)—N1-methyl-6-(1-methyl-1H-imidazole-5-carboxamido)-N7-(4-(4-methylpiperazin-1-ylsulfonyl)phenyl)-2-oxoheptanediamide] | 6300 nM
4 | CCC(CC)CNC(=O)Cn1cccc(NC(=O)[C@H](CCC(=O)C(=O)NC(C)(C)C)NC(=O)c2cncn2C)c1=O [Compound E21, (S)—N1-tert-butyl-N6-(1-(2-(2-ethylbutylamino)-2-oxoethyl)-2-oxo-1,2-dihydropyridin-3-yl)-5-(1-methyl-1H-imidazole-5-carboxamido)-2-oxonexanediamide] | 5000 nM
5 | CCC(CC)CNC(=O)Cn1cccc(NC(=O)[C@H](CCC(=O)C(=O)NOCC2CCCC2)NC(=O)c2cncn2C)c1=O [Compound E79, (S)—N1-(cyclopentylmethoxy)-N6-(1-(2-(2-ethylbutylamino)-2-oxoethyl)-2-oxo-1,2-di-hydropyridin-3-yl)-5-(1-methyl-1H-imidazole-5-carboxamido)-2-oxohexanediamide] | 530 nM
6 | CNC(=O)C(=O)CC[C@H](NC(=O)c1cncn1C)C(=O)Nc1cccn(CC(=O)NS(C)(=O)=O)c1=O [Compound E51, (S)—N1-methyl-5-(1-methyl-1H-imidazole-5-carboxamido)-N6-(1-(2-(methylsulfonamido)-2-oxoethyl)-2-oxo-1,2-dihydropyridin-3-yl)-2-oxohexanediamide] | 760 nM
7 | CCC(CC)CNC(=O)Cn1cccc(NC(=O)[C@H](CCC(=O)C(=O)NC)NC(=O)c2cncnc2)c1=O [Compound E64, (S)—N1-(1-(2-(2-ethylbutylamino)-2-oxoethyl)-2-oxo-1,2-dihydropyridin-3-yl)-N6-methyl-5-oxo-2-(pyrimidine-5-carboxamido)hexanediamide] | 95 nM
8 | CCC(CC)CNC(=O)Cn1cccc(NC(=O)[C@H](CCC(=O)C(N)=O)NC(=O)c2scnc2C)c1=O [Compound E14, (S)—N1-(1-(2-(2-ethylbutylamino)-2-oxoethyl)-2-oxo-1,2-dihydropyridin-3-yl)-2-(4-methylthiazole-5-carboxamido)-5-oxohexanediamide] | 250 nM
9 | CCC(CC)CNC(=O)Cn1cccc(NC(=O)[C@H](CCC(=O)C(=O)NC)NS(=O)(=O)c2c(Cl)nc3sccn23)c1=O [Compound E67, (S)-2-(6-chloroimidazo[2,1-b]thiazole-5-sulfonamido)-N1-(1-(2-(2-ethylbutylamino)-2-oxoethyl)-2-oxo-1,2-dihydropyridin-3-yl)-N6-methyl-5-oxohexanediamide] | 150 nM
10 | COC(=O)[C@H](CC(C)C)NC(=O)[C@@H]1CCCN1C(=O)[C@@H](NC(=O)[C@H](CCC(=O)C(=O)NC1CC1)NC(=O)c1ccccc1)C(C)C [Compound E24, (S)-methyl 2-((S)-1-((S)-2-((S)-2-benzamido-6-(cyclopropylamino)-5,6-dioxonexan-amido)-3-methylbutanoyl)pyrrolidine-2-carboxamido)-4-methylpentanoate] | 550 nM
11 | CCC(CC)CNC(=O)Cn1cccc(NC(=O)[C@H](CCC(=O)C(=O)c2cn(C)cn2)NC(=O)c2cncn2C)c1=O [Compound E81, (S)—N-(1-(1-(2-(2-ethylbutylamino)-2-oxoethyl)-2-oxo-1,2-dihydropyridin-3-ylamino)-6-(1-methyl-1H-imidazol-4-yl)-1,5,6-trioxohexan-2-yl)-1-methyl-1H-imidazole-5-carboxamide] | 740 nM
12 | CCC(CC)CNC(=O)Cn1cccc(NC(=O)[C@H](CCCC(=O)C(=O)NC)NC(=O)c2cncn2C)c1=O [Compound E71, (S)—N1-(1-(2-(2-ethylbutylamino)-2-oxoethyl)-2-oxo-1,2-dihydropyridin-3-yl)-N7-methyl-2-(1-methyl-1H-imidazole-5-carboxamido)-6-oxoheptanediamide] | 6000 nM
13 | CCC(CC)CNC(=O)Cn1cc(Cl)cc(NC(=O)[C@H](CCC(=O)C(=O)NC)NC(=O)c2cncn2C)c1=O [Compound E45, (S)—N1-(5-chloro-1-(2-(2-ethylbutylamino)-2-oxoethyl)-2-oxo-1,2-dihydropyridin-yl)-N6-methyl-2-(1-methyl-1H-imidazole-5-carboxamido)-5-oxohexanediamide] | 75 nM
14 | CCC(CC)CNC(=O)Cn1cccc(NC(=O)[C@H](CCC(=O)C(=O)NC)NC(=O)CCC(=O)O)c1=O [Compound E59, (S)-4-(1-(1-(2-(2-ethylbutylamino)-2-oxoethyl)-2-oxo-1,2-dihydropyridin-3-ylamino)-6-(methylamino)-1,5,6-trioxohexan-2-ylamino)-4-oxobutanoic acid] | 625 nM
15 | CCC(CC)CNC(=O)Cn1cccc(NC(=O)[C@H](CCC(=O)C(=O)c2ccccc2)NC(=O)c2cncn2C)c1=O [Compound E76, (S)—N-(1-(1-(2-(2-ethylbutylamino)-2-oxoethyl)-2-oxo-1,2-dihydropyridin-3-ylamino)-1,5,6-trioxo-6-phenylhexan-2-yl)-1-methyl-1H-imidazole-5-carboxamide] | 550 nM
16 | CCS(=O)(=O)NC(=O)Cn1cccc(NC(=O)[C@H](CCC(=O)C(=O)NC)NC(=O)c2cncn2C)c1=O [Compound E56, (S)—N1-(1-(2-(ethylsulfonamido)-2-oxoethyl)-2-oxo-1,2-dihydropyridin-3-yl)-N6-methyl-2-(1-methyl-1H-imidazole-5-carboxamido)-5-oxohexanediamide] | 850 nM
17 | CCC(CC)CNC(=O)Cn1cccc(NC(=O)[C@H](CCC(=O)C(=O)NC)NC(=O)OC(C)(C)C)c1=O [Compound E58, (S)-tert-butyl 1-(1-(2-(2-ethylbutylamino)-2-oxoethyl)-2-oxo-1,2-dihydropyridin-3-ylamino)-6-(methylamino)-1,5,6-trioxohexan-2-ylcarbamate] | 280 nM
18 | CCC(CC)CNC(=O)Cn1cccc(NC(=O)[C@H](CCC(=O)C(N)=O)NC(=O)c2cc([N+](=O)[O-])ccc2C)c1=O [Compound E13] | 700 nM
19 | CNC(=O)C(=O)CC[C@H](NC(=O)c1cncn1C)C(=O)Nc1cccn(CC(=O)OCCOC)c1=O [Compound E53, (S)-2-methoxyethyl 2-(3-(2-(1-methyl-1H-imidazole-5-carboxamido)-6-(methylamino)-5,6-dioxohexanamido)-2-oxopyridin-1(2H)-yl)acetate] | 750 nM
